In general, Papp refers to a coefficient for how fast a substance crosses the barrier. A lower Papp goes with slow passage.

The structures appear in SMILES notation. *1 amine or outer side, *2 acyl side, *3 side chain or, on linkers, in order; H or OH if unused. Where a SMILES comes first, the peptide text is derived from it. Bridges are numbered along the chain shown (N, C = ends). [ ]: non-standard residue; d: D form. The star is where a group is joined. ξ: configuration not given here. Phe(3-OMe,4-CONHMs) = COc1cc(C[C@H](N)C(=O)O)ccc1C(=O)NS(C)(=O)=O; hPhe(3-OMe,4-CONHMe) = CNC(=O)c1ccc(CC[C@H](N)C(=O)O)cc1OC; Phe(3-CONHMe,4-OMe) = CNC(=O)c1cc(C[C@H](N)C(=O)O)ccc1OC; NMePhe(3-Cl) = CN[C@@H](Cc1cccc(Cl)c1)C(=O)O; ξGln(SO2Me) = CS(=O)(=O)NC(=O)CCC(N)C(=O)O; NMehPhe = CN[C@@H](CCc1ccccc1)C(=O)O; X6 = O=C([C@H](CCCCO)N[*:1])[*:2]; Hyp = O=C(O)[C@@H]1C[C@@H](O)CN1; NMeF = CN[C@@H](Cc1ccccc1)C(=O)O; NMeGABA = CN(CCCC(=O)[*:2])[*:1]; NMeI = CC[C@H](C)[C@H](NC)C(=O)O; Butyl(3-Me,3-OH) = CC(C)(O)CC*; NMeL = CN[C@@H](CC(C)C)C(=O)O; Propyl(2R-OH) = C[C@@H](O)C*; NMeV = CN[C@H](C(=O)O)C(C)C; NMeAbu = CC[C@H](NC)C(=O)O; NMeA = CN[C@@H](C)C(=O)O; Piperidide = C1CCN(*)CC1; Me2NCH2CH2 = CN(C)CC*; NBuGly = CCCCNCC(=O)O; NPrGly = CCCNCC(=O)O; Ethyl(2-OH) = OCC*; Sar = CNCC(=O)O; tBu = CC(C)(C)*

The first data set in a line: in vitro. Particulars: human, Caco-2, Caco-2.
For the compound `CCCN1CC(=O)N(C)[C@@H](CC(C)C)C(=O)N[C@@H](COCCN(C)C)C(=O)N(C)[C@@H](Cc2ccccc2)C(=O)N(C)[C@@H](C(C)C)C(=O)N[C@H](C(=O)N2CCCCC2)CC(=O)N[C@H](C(C)C)C(=O)N(C)[C@@H](Cc2ccccc2)C(=O)N[C@@H](CC(C)C)C(=O)N(C)[C@@H](CC(C)C)C(=O)N[C@@H]([C@@H](C)O)C1=O` [pd52] ([dV][NMeF]L[NMeL]T[NPrGly][NMeL]S(Me2NCH2CH2)[NMeF][NMeV]D-Piperidide; lactam N-11), the Papp stood at 0.12 ×10⁻⁶ cm/s.
With `CCCCN1CC(=O)N(C)[C@@H](CC(C)C)C(=O)N[C@@H](COC(C)(C)C)C(=O)N(C)[C@@H](Cc2ccccc2)C(=O)N(C)[C@@H](C(C)C)C(=O)N[C@H](C(=O)N2CCCCC2)CC(=O)N[C@H](C(C)C)C(=O)N(C)[C@@H](Cc2ccccc2)C(=O)NC(CCC(=O)NS(C)(=O)=O)C(=O)N(C)[C@@H](CC(C)C)C(=O)N[C@@H](CC(C)C)C1=O` (stereo partly drawn) [pd67] ([dV][NMeF][ξGln(SO2Me)][NMeL]L[NBuGly][NMeL]S(tBu)[NMeF][NMeV]D-Piperidide; lactam N-11), the Papp turned out to be 0.06 ×10⁻⁶ cm/s.

Staying with this data set, now noted: human, Caco-2, Caco-2 (cm/sec).
`CCCN1CC(=O)N(C)[C@@H](CC(C)C)C(=O)N[C@H](C(=O)N2CCCCC2)CC(=O)N(C)[C@@H](C)C(=O)N[C@@H](CCCCO)C(=O)N(C)[C@@H](CC(C)C)C(=O)N(C)[C@@H](Cc2cccc(Cl)c2)C(=O)N[C@@H](C(C)C)C(=O)N(C)[C@@H](CCc2ccccc2)C(=O)N(C)[C@@H](CC(C)C)C(=O)N[C@@H]([C@@H](C)O)C1=O` [Compound B05] ([NMeA][X6][NMeL][NMePhe(3-Cl)]V[NMehPhe][NMeL]T[NPrGly][NMeL]D-Piperidide; lactam N-11) yielded a Papp of 0.26 ×10⁻⁶ cm/s.
`CC(C)C[C@@H]1NC(=O)C[C@@H](C(=O)N2CCCCC2)NC(=O)[C@H](CC(C)C)N(C)C(=O)[C@H](Cc2ccccc2)NC(=O)[C@H](Cc2ccccc2)N(C)C(=O)[C@H]([C@@H](C)O)NC(=O)[C@H](CC(C)C)N(C)C(=O)[C@@H]2C[C@@H](OCCO)CN2C(=O)[C@H](CC(C)C)N(C)C(=O)[C@H](COC(C)(C)C)NC(=O)[C@H](CC(C)C)N(C)C1=O` [AP235] (L[NMeL]S(tBu)[NMeL][Hyp](Ethyl(2-OH))[NMeL]T[NMeF]F[NMeL]D-Piperidide; lactam N-11) showed a Papp of 1.5 ×10⁻⁶ cm/s.
`CC[C@H](C)[C@@H]1NC(=O)[C@H](Cc2ccccc2)N(C)C(=O)[C@H](CCc2ccc(C(=O)NC)c(OC)c2)NC(=O)[C@H](CC(C)C)N(C)C(=O)[C@H](C(C)C)NC(=O)[C@H](CC(C)C)N(C)C(=O)[C@H](CC(C)C)N(C)C(=O)CNC(=O)[C@H](CC)N(C)C(=O)C[C@@H](C(=O)N2CCCCC2)NC(=O)[C@H]([C@@H](C)O)NC(=O)[C@H](CC(C)C)N(C)C(=O)[C@H](CC(C)C)N(C)C1=O` [AP266] ([NMeAbu]G[NMeL][NMeL]V[NMeL][hPhe(3-OMe,4-CONHMe)][NMeF]I[NMeL][NMeL]TD-Piperidide; lactam N-13) came in with a Papp of under 0.0895 ×10⁻⁶ cm/s.
`CC[C@H](C)[C@@H]1NC(=O)[C@H](CC(C)C)N(C)C(=O)CCCN(C)C(=O)C[C@@H](C(=O)N2CCCCC2)NC(=O)[C@H](CC(C)C)N(C)C(=O)[C@H](CC(C)C)N(C)C(=O)[C@H]([C@@H](C)O)NC(=O)[C@H](CC(C)C)N(C)C(=O)[C@H](COC[C@@H](C)O)NC(=O)[C@H](Cc2cccc(Cl)c2)N(C)C(=O)[C@H](Cc2ccccc2)N(C)C1=O` [AP74] ([NMeGABA][NMeL]I[NMeF][NMePhe(3-Cl)]S(Propyl(2R-OH))[NMeL]T[NMeL][NMeL]D-Piperidide; lactam N-11) had a Papp of 0.31 ×10⁻⁶ cm/s.
The compound `CC[C@H](C)[C@H]1C(=O)N[C@@H]([C@@H](C)O)C(=O)N(C)CC(=O)N(C)[C@@H](CC)C(=O)N[C@H](C(=O)N2CCCCC2)CC(=O)N(C)[C@@H](CC(C)C)C(=O)N[C@@H](Cc2ccc(OC)c(C(=O)NC)c2)C(=O)N(C)[C@@H](CC(C)C)C(=O)N(C)[C@@H](Cc2ccccc2)C(=O)N[C@@H](CC(C)C)C(=O)N(C)[C@@H](CC(C)C)C(=O)N1C` [AP39] ([NMeL][Phe(3-CONHMe,4-OMe)][NMeL][NMeF]L[NMeL][NMeI]T[Sar][NMeAbu]D-Piperidide; lactam N-11) came in with a Papp of 0.01 ×10⁻⁶ cm/s.
Still for that read-out and setting: the value for `CC(C)C[C@@H]1NC(=O)[C@H](Cc2ccccc2)N(C)C(=O)[C@@H](C(C)C)NC(=O)C[C@@H](C(=O)N2CCCCC2)NC(=O)[C@H](CC(C)C)N(C)C(=O)[C@H](Cc2cccc(Cl)c2)N(C)C(=O)[C@H](COCCC(C)(C)O)NC(=O)[C@H](CC(C)C)N(C)C(=O)CN(C)C(=O)[C@H]([C@@H](C)O)NC(=O)[C@H](C(C)C)N(C)C1=O` [AP52] ([dV][NMeF]L[NMeV]T[Sar][NMeL]S(Butyl(3-Me,3-OH))[NMePhe(3-Cl)][NMeL]D-Piperidide; lactam N-11) was 1.7 ×10⁻⁶ cm/s.
Regarding `CCCCN1CC(=O)N(C)[C@@H](CC(C)C)C(=O)N(C)[C@@H](CC(C)C)C(=O)N[C@@H](COC(C)(C)C)C(=O)N(C)[C@@H](CC(C)C)C(=O)N[C@H](C(=O)N2CCCCC2)CC(=O)N(C)CC(=O)N(C)[C@@H](Cc2cccc(Cl)c2)C(=O)N[C@@H](Cc2ccc(C(=O)NS(C)(=O)=O)c(OC)c2)C(=O)N(C)[C@@H](CC(C)C)C(=O)N[C@@H]([C@@H](C)O)C1=O` [AP140] ([Sar][NMePhe(3-Cl)][Phe(3-OMe,4-CONHMs)][NMeL]T[NBuGly][NMeL][NMeL]S(tBu)[NMeL]D-Piperidide; lactam N-11), the Papp came out at 0.49 ×10⁻⁶ cm/s.

For the origin of these results see US20230096766A1, “AMINO ACID HAVING FUNCTIONAL GROUP CAPABLE OF INTERMOLECULAR HYDROGEN BONDING, PEPTIDE COMPOUND CONTAINING SAME AND METHOD FOR PRODUCTION THEREOF” (Chugai Seiyaku Kabushiki Kaisha, priority 2018, published 2023).
